Patent US5420027A, “Methods and compositions for the expression of biologically active fusion proteins comprising a eukaryotic cytochrome P450 fused to a reductase in bacteria” (Board of Regents, The University of Texas System, priority 1992, dated 1995)
Like-named read-outs stand apart in the source and are kept apart here.

Legend:
[1] = target: T1, human liver P450 1A2 (Homo sapiens, UniProt P05177, A19F/I20L/S18V); assay: Ethoxyresorufin and ethoxycoumarin O-deethylase activities of P450 1A2-containing E. coli membranes (fluorometric); assay type: biochemical; details: O-deethylation; membranes plus purified reductase, 37° C.
T1 construct: made in house; host or cells: E. coli DH5α membranes, pCWori+ plasmid
T1 sequence (P05177 with tags, fused parts or gaps S18V/A19F/I20L limits assumed): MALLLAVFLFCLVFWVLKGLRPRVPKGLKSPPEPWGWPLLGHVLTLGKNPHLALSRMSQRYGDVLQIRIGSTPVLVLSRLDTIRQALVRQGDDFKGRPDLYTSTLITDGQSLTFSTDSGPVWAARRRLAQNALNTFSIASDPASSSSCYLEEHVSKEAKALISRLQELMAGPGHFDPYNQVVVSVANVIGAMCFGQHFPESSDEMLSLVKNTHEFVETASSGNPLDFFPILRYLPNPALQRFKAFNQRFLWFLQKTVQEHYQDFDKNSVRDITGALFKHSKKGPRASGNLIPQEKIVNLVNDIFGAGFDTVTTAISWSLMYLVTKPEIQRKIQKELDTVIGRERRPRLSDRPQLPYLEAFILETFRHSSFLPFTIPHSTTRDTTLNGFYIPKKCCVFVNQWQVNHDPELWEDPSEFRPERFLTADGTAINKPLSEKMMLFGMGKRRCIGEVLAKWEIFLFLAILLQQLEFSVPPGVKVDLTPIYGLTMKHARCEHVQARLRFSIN
Description: (§1) Membranes from P450 1A2-expressing E. coli were incubated with pure NADPH-cytochrome P450 reductase and the activity for the P450 directed oxidation of a number of substrates was determined.
(§2) Ethoxyresorufin and ethoxycoumarin O-deethylase activities were assayed fluorometrically using an Aminco-Bowman fluorometer as previously described (Burke & Mayer, 1974; Ullrich & Weber, 1972). […] Substrates were added as DMSO solutions in less than 0.1% of the final volume. The reactions were initiated by the addition of 10 μl of 50 mM NADPH.

[2] = target: T2, bovine P45017α (Bos taurus, UniProt P05185, W2A); assay: Substrate-induced difference spectra (substrate binding) in intact E. coli expressing P45017α; details: steroid added until spectrally saturated
T2 construct: made in house; host or cells: E. coli JM109 harboring pCWmod17 (intact cells)
T2 sequence (P05185 1-509 W2A): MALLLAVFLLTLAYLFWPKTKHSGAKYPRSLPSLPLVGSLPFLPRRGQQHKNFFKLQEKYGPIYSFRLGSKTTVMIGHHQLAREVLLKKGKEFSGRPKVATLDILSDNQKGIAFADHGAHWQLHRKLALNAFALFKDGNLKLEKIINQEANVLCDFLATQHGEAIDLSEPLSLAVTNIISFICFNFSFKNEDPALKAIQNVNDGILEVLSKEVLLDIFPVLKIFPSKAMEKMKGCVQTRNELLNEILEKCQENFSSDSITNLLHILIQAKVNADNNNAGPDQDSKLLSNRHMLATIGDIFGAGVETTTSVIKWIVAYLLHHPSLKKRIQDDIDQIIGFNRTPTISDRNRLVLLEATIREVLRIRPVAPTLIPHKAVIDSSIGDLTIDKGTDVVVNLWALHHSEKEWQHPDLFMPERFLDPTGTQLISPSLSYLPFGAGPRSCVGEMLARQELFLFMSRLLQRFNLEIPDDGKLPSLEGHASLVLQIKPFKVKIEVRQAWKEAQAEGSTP
Description: The functional role of the binding of C21 steroids to the expressed P45017α was determined by incubation of transformed E. coli with radiolabeled substrates and HPLC analysis of substrates and products.
For the studies shown in FIG. 3B, substrate binding spectra were obtained by adding steroid to the indicated final concentration: (preg) pregnenolone 22 μM, (17OH preg) 17α-hydroxypregnenolone 40 μM, (DHEA) dehydroepiandrosterone 46 μM, (AD) androstenedione 46 μM. A volume of washed cells containing 1.6 nmoles P45017α was diluted to 6 ml with MOPS buffer and divided into the sample and reference cuvettes of an Aminco DW-2A spectrophotometer. A baseline tracing was recorded from 350 to 510 nm (representative shown). Steroid was added in 10 μl aliquots (1-2mg/ml in ethanol) to the sample with an equal volume of ethanol added to the reference. Additional aliquots of steroids and ethanol were added until the bacterially expressed P45017α was spectrally saturated (spectra shown).

[3] = target: T3, bovine P450 17A1- rat liver reductase fusion protein (UniProt P00388+P05185, W2A); assay: Steroid metabolism by bovine P450 17A1-rat liver reductase fusion protein with NADPH
T3 sequence (P05185+P00388 with tags, fused parts or gaps P05185:W2A): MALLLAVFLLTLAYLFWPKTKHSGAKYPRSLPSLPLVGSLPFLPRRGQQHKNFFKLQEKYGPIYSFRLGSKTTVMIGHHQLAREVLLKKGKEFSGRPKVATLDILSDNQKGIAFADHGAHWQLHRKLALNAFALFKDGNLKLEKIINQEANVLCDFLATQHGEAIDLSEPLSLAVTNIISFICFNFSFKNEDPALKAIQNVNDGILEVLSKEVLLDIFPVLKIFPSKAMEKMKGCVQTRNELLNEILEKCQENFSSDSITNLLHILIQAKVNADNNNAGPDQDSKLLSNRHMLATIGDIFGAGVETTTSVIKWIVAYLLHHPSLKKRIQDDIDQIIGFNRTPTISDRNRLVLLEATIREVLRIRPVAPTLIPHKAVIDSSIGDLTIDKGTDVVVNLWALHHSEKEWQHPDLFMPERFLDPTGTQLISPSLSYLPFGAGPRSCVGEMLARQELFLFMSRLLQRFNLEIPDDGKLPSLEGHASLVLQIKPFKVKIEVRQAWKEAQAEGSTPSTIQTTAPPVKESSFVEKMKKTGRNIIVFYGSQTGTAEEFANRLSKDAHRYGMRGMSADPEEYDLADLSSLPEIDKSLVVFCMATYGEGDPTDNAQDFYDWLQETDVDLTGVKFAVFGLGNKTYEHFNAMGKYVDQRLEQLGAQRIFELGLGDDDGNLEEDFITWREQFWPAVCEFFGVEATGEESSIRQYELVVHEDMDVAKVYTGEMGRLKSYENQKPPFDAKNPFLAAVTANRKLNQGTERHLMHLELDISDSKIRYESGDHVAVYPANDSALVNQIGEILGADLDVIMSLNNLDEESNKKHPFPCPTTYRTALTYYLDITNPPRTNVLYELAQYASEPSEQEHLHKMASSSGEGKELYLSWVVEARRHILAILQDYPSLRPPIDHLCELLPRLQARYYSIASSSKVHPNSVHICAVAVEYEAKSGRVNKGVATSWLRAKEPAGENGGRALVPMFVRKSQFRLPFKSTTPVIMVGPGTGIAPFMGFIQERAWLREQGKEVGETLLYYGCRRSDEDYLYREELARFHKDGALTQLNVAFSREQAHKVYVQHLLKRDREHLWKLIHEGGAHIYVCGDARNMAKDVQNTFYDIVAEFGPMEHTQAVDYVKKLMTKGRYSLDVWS
Description: FIG. 11. […] Analysis was performed with reverse phase HPLC chromatography on a C18 column.
In the present example, purification of the fusion protein was achieved by chromatography on DE-52 and 2', 5' ADP-sepharose.

[4] = target: T4, bovine 17α-hydroxylase (P45017α) (Bos taurus, UniProt P05185, W2A); details: for conversion by expressed P45017α (17α-hydroxylation / 17,20-lyase): intact E. coli, 2.5 μM steroid, 28° C., up to 8 hours, no added reductase
T4 sequence (P05185 1-509 W2A): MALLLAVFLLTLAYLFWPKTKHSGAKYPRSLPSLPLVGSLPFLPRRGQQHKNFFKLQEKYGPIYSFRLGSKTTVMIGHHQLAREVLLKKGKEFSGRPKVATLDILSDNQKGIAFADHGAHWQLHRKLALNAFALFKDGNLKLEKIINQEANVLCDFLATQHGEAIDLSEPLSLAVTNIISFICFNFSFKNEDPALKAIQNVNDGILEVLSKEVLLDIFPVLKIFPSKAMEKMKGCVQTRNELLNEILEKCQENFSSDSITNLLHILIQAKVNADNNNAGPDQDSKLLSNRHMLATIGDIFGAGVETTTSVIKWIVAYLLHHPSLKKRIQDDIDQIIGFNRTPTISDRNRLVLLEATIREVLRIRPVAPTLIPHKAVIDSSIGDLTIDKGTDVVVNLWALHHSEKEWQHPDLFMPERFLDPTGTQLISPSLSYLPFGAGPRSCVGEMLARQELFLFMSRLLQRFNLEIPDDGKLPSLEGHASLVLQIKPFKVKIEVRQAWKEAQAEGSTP
Description: The initial substrates employed were pregnenolone, 17α-hydroxypregnenolone, and progesterone. For these studies, E. coli were grown and induced as described for the FIG. 2 studies. Cells were pelleted, washed once in MOPS buffer and resuspended in the same buffer at 1/20 volume of the original bacterial culture. A volume of concentrated cells corresponding to 3.7-4.2 nmoles P45017α was diluted to 5ml MOPS buffer containing 10 mM glucose, 2.5 μM steroid and 100,000 cpm/ml of ^3 H-labeled radioactive steroid. Samples were incubated at. 28° C. with gentle shaking. Aliquots (0.5 ml) were removed at 0, 0.5, 1, 2, 4, 6 and 8 hours after steroid addition. Following extraction of cells and culture media steroids were analyzed by HPLC as previously described (Estabrook et al., 1988).

[5] = substrate: CCOc1ccc2nc3ccc(=O)cc-3oc2c1; assay: Ethoxyresorufin and ethoxycoumarin O-deethylase activities of P450 1A2-containing E. coli membranes (fluorometric); assay type: biochemical, human; details: other: O-deethylation, membranes plus purified reductase, 37° C., pH 7.4
Description: as §1, §2

[6] = substrate: C[C@]12CC[C@@H]3c4ccc(O)cc4CC[C@H]3[C@@H]1CC[C@@H]2O; assay: cells, lysate or membranes named; details: other: estradiol to 2-OH metabolite, membranes plus purified reductase, 37° C., pH 7.5
[7] = membrane-bound fused enzyme (FIG. 10)
[8] = purified fusion protein incubated with NADPH (FIGS. 11, 12)

Molecule: CCOc1ccc2ccc(=O)oc2c1 [Ethoxycoumarin]
- Vmax [1]: 0.3644 mol/min/mol P450

Molecule: CC(=O)[C@@]1(O)CC[C@H]2[C@@H]3CC=C4C[C@@H](O)CC[C@]4(C)[C@H]3CC[C@@]21C [17α-hydroxyregnenolone, 17α-hydroxypregnenolone]
- binding to expressed P45017α (substrate-induced difference spectrum) [2]: binding of substrates was also observed
- metabolism by membrane-bound fusion protein [3, 7]: lost the ability to catalyze the lyase reaction
- metabolism by purified fusion protein [3, 8]: DHEA is formed in a time dependent manner

Molecule: CC(=O)[C@H]1CC[C@H]2[C@@H]3CCC4=CC(=O)CC[C@]4(C)[C@H]3CC[C@]12C [progesterone]
- conversion by expressed P45017α (17α-hydroxylation / 17,20-lyase) [4]: readily converted to their 17α-hydroxylated products
- binding to expressed P45017α (substrate-induced difference spectrum) [2]: binding of substrates was also observed
- metabolism by membrane-bound fusion protein [3, 7]: rather slow rate
- metabolism by purified fusion protein [3, 8]: remarkably high enzymatic activity

Molecule: C[C@]12CC[C@H](O)CC1=CC[C@@H]1[C@@H]2CC[C@]2(C)C(=O)CC[C@@H]12 [dehydroepiandrosterone]
- binding to expressed P45017α (substrate-induced difference spectrum) [2]: much less binding

Molecule: CC(=O)N1CCN(c2ccc(OCC3COC(Cn4ccnc4)(c4ccc(Cl)cc4Cl)O3)cc2)CC1 (stereo not shown) [ketoconazole]
- inhibition of 17α-hydroxylase activity ([4]; intact E. coli expressing bovine P45017α): inhibit 17α-hydroxylase activity

Molecule: C[C@]12CCC(=O)C=C1CC[C@@H]1[C@@H]2CC[C@]2(C)C(=O)CC[C@@H]12 [androstenedione]
- binding to expressed P45017α (substrate-induced difference spectrum) [2]: no binding

Molecule: CC(=O)[C@H]1CC[C@H]2[C@@H]3CC=C4C[C@@H](O)CC[C@]4(C)[C@H]3CC[C@]12C [pregnenolone]
- conversion by expressed P45017α (17α-hydroxylation / 17,20-lyase) [4]: readily converted to their 17α-hydroxylated products
- binding to expressed P45017α (substrate-induced difference spectrum) [2]: binding of substrates was also observed
- metabolism by membrane-bound fusion protein [3]: rather slow rate
- metabolism by purified fusion protein [3]: remarkably high enzymatic activity

B1: human liver P450 1A2 (Homo sapiens; A19F/I20L/S18V) (protein)
chain: MALLLAVFLFCLVFWVLKGLRPRVPKGLKSPPEPWGWPLLGHVLTLGKNPHLALSRMSQRYGDVLQIRIGSTPVLVLSRLDTIRQALVRQGDDFKGRPDLYTSTLITDGQSLTFSTDSGPVWAARRRLAQNALNTFSIASDPASSSSCYLEEHVSKEAKALISRLQELMAGPGHFDPYNQVVVSVANVIGAMCFGQHFPESSDEMLSLVKNTHEFVETASSGNPLDFFPILRYLPNPALQRFKAFNQRFLWFLQKTVQEHYQDFDKNSVRDITGALFKHSKKGPRASGNLIPQEKIVNLVNDIFGAGFDTVTTAISWSLMYLVTKPEIQRKIQKELDTVIGRERRPRLSDRPQLPYLEAFILETFRHSSFLPFTIPHSTTRDTTLNGFYIPKKCCVFVNQWQVNHDPELWEDPSEFRPERFLTADGTAINKPLSEKMMLFGMGKRRCIGEVLAKWEIFLFLAILLQQLEFSVPPGVKVDLTPIYGLTMKHARCEHVQARLRFSIN
notes: made in house; host or cells: E. coli DH5α membranes, pCWori+ plasmid
- Km [5]: 0.01 µM
- kcat [5]: 2.5 mol/min/mol P450
- Km [6]: 13 µM
- kcat [6]: 1.5 mol/min/mol P450
